Test results: article PMC7466280 (Cell, 2020)
Read-outs that look alike come from different tables or passages of the source.

Experiments:
NTSR1 [1] = biological target: T1, NTSR1 (Homo sapiens, UniProt P30989); assay: BRET β-arrestin2 recruitment assay in HEK293T cells; type: cell-based
C57BL/6J mice [2] = assay: Core body temperature measurement; type: in vivo, mouse; conditions: PD149163 0.1 – 1 mg/kg i.p.; SBI-553 2–30 mg/kg i.p.
NTSR1 [3] = biological target: T1, NTSR1; assay: Gq protein activation by TGFα shedding assay; type: cell-based; conditions: for effect on NTS-induced Gq activation: in combination with NTS; for Gq activation: ligand alone
C57BL/6J mice [4] = assay: Intravenous cocaine self-administration; type: in vivo, mouse
NTSR1 [5] = biological target: T1, NTSR1; assay: IP3 BRET assay; type: cell-based; conditions: for effect on NTS-induced IP3 production: in combination with NTS; for IP3 generation: ligand alone, SBI-553 10 μM, SR142948A 10 μM
DAT KO mice = assay: L-DOPA-induced restoration of locomotion in dopamine depleted DAT KO mice; type: in vivo, mouse; conditions: 12 mg/kg i.p., AMPT dopamine-depleted DAT KO mice
β-arrestin2 KO mice = type: in vivo, mouse; conditions: 12 mg/kg i.p.; for cocaine-induced hyperlocomotion: cocaine 30 mg/kg i.p.
NTSR1 [6] = biological target: T1, NTSR1; assay: NTSR1 internalization assay; type: cell-based
C57BL/6J mice [7] = assay: Contact righting test; type: in vivo, mouse; conditions: PD149163 i.p. 120 min, SBI-553 i.p. (up to 30 mg/kg) 30 min prior to testing
NTSR1 [8] = biological target: T1, NTSR1; assay: Confocal β-arrestin2 translocation assay in U2OS cells; type: cell-based; conditions: for β-arrestin2 translocation: NTSR1-expressing U2OS cells, ligand alone
C57BL/6J mice [9] = assay: Horizontal wire test; type: in vivo, mouse; conditions: PD149163 i.p. 120 min, SBI-553 i.p. (up to 30 mg/kg) 30 min prior to testing
C57BL/6J mice [10] = assay: Oral SBI-553 modulation of PD149163-induced hypothermia and hypoactivity; type: in vivo, mouse; conditions: SBI-553 10, 30, 100 mg/kg p.o. 30 min prior to PD149163 i.p.
C57BL/6J mice [11] = assay: Stimulant-induced hyperlocomotion in the open field; type: in vivo, mouse; conditions: 12 mg/kg i.p.
NTSR1 [12] = biological target: T1, NTSR1; assay: Apo-aequorin calcium assay; type: cell-based; conditions: for effect on NTS-induced Ca2+ mobilization: in combination with NTS (10 nM); for Ca2+ mobilization: ligand alone
C57BL/6J mice [13] = assay: Methamphetamine conditioned place preference; conditions: 12 mg/kg i.p. 15 min prior to test
C57BL/6J mice [14] = assay: Blood pressure measurement; type: in vivo, mouse; conditions: SBI-553 12 mg/kg i.p.; PD149163 0.3 mg/kg i.p.; 60 minutes post-treatment
NTSR1 [15] = biological target: T1, NTSR1; assay: Phosphorylated ERK detection by western blot; type: cell-based
NTSR1 [16] = biological target: T1, NTSR1; assay: Phosphorylated NTSR1 detection by western blot; type: cell-based; conditions: NTSR1-expressing HEK293T cells; NTS 10 nM, SBI-553 10 μM, SR142948A 10 μM
NTSR1 [17] = biological target: T1, NTSR1; assay: Radioligand binding to NTSR1-containing HEK293T cell membranes
[18] = 12 mg/kg i.p., cocaine 0.1 mg/kg/infusion
[19] = low-concentration NTS, maximal levels not altered
[20] = HEK293T cells expressing human NTSR1, SBI-553 10 μM, SR142948A 10 μM
[21] = [3H]NTS saturation binding with SBI-553 0.01 – 10 μM

T1 sequence (P30989 whole entry): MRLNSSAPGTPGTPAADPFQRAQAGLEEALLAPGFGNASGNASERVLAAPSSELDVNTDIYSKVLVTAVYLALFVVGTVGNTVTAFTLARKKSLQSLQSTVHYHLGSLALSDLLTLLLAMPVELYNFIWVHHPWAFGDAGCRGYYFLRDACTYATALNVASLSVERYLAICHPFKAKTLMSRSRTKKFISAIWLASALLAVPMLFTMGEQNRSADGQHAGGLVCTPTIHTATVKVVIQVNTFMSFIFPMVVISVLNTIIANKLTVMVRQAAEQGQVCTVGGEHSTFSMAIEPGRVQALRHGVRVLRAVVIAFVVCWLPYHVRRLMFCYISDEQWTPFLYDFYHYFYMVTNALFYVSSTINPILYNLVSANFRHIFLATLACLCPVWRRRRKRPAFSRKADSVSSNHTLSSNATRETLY

SMILES: COc1ccccc1C1CCN(c2nc(C3(F)CC3)nc3ccc(N(C)CCO)cc23)CC1 [SBI-553]
- β-arrestin2 recruitment to NTSR1 (NTSR1 [1]; ligand alone): stimulated β-arrestin2 recruitment
- effect of pretreatment on NTS-induced β-arrestin2 recruitment to NTSR1 (NTSR1 [1]; low-concentration NTS): enhanced
- core body temperature (C57BL/6J mice [2]): no effect on core body temperature
- effect on NTS-induced Gq activation (NTSR1 [3]): attenuated
- Gq activation (NTSR1 [3]): neither SBI-553 nor the antagonist SR142948A had any effect
- lever discrimination (percent responses at active and inactive levers) (C57BL/6J mice [4]; 12 mg/kg i.p., 3-day test): lever discrimination was unchanged
- activity at the inactive lever (C57BL/6J mice [4]; [18]): unchanged across treatments
- cocaine intake, level of the vehicle control (C57BL/6J mice [4]; [18]): less than 20%
- latency to initiate lever responding (C57BL/6J mice [4]; [18]): increased the latency to initiate lever responding
- percent of lever responses during the post-reinforcement cue period (C57BL/6J mice [4]; [18]): reduced the percent of lever responses that occurred during the post-reinforcement cue period
- cumulative self-administered cocaine reinforcements (C57BL/6J mice [4]; 12 mg/kg i.p., cocaine 0.1 mg/kg/infusion, FR4, 60 min session): fewer cumulative self-administered reinforcements between 20 and 60 min
- total and active lever responses (C57BL/6J mice [4]; 12 mg/kg i.p., cocaine 0.1 mg/kg/infusion, relative to Vehicle and No Treatment): significantly suppressed total and active lever responses
- cocaine self-administration at the highest cocaine dose (C57BL/6J mice [4]; SBI-553 2, 6, 12 mg/kg i.p., cocaine 1 mg/kg/infusion): No change in self-administration
- lever accuracy (C57BL/6J mice [4]; SBI-553 2, 6, 12 mg/kg i.p., cocaine 0.1-1 mg/kg/infusion): not altered by SBI-553 treatment
- cocaine self-administration dose-response (C57BL/6J mice [4]; SBI-553 6, 12 mg/kg, cocaine 0.1, 0.3, 0.5 mg/kg/infusion): greater efficacy at lower cocaine infusion doses
- effect on NTS-induced IP3 production (NTSR1 [5]): attenuated
- IP3 generation (NTSR1 [5]): neither SBI-553 nor SR142948A stimulated
- L-DOPA-induced restoration of locomotion (DAT KO mice): attenuated
- methamphetamine-induced hyperlocomotion (β-arrestin2 KO mice; A2aR-Cre animals (deletion in striatal D2R-expressing neurons)): no SBI-553 effects were observed
- methamphetamine-induced hyperlocomotion (β-arrestin2 KO mice; D1RCre animals (β-arrestin2 deletion in D1R-expressing neurons)): effectively reduced
- methamphetamine-induced hyperlocomotion (β-arrestin2 KO mice; D2R-Cre mice (β-arrestin2 deletion in D2R-expressing neurons)): failed to affect locomotion
- methamphetamine-induced hyperlocomotion (β-arrestin2 KO mice; DAT-Cre mice (deletion in midbrain D2R-expressing neurons)): reduced the methamphetamine-induced hyperlocomotion
- cocaine-induced hyperlocomotion (β-arrestin2 KO mice; WT mice on C57BL/6J background): decrease
- methamphetamine-induced hyperlocomotion (β-arrestin2 KO mice; WT mice on C57BL/6J background, methamphetamine 2 mg/kg i.p.): decrease
- cocaine-induced hyperlocomotion (β-arrestin2 KO mice; global β-arrestin2 knockout mice): a significant reduction in locomotion was absent
- methamphetamine-induced hyperlocomotion (β-arrestin2 KO mice; global β-arrestin2 knockout mice, methamphetamine 2 mg/kg i.p.): a significant reduction in locomotion was absent
- methamphetamine-induced hyperlocomotion (β-arrestin2 KO mice; β-arrestin2 f/f Cre negative littermate controls): effectively reduced
- NTSR1 internalization (NTSR1 [6]; ligand alone): stimulated NTSR1 internalization
- effect of pretreatment on NTS-induced NTSR1 internalization (NTSR1 [6]; [19]): enhanced
- righting reflex (C57BL/6J mice [7]): failed to influence
- β-arrestin2 translocation in U2OS cells lacking NTSR1 (NTSR1 [8]; NTS 200 nM, SBI-553 7.5 μM, 40 min): Neither NTS nor SBI-553 treatment stimulated β-arrestin2 translocation
- β-arrestin2 translocation (NTSR1 [8]): stimulated β-arrestin2 translocation to the plasma membrane
- effect of pretreatment on NTS-induced β-arrestin2 translocation (NTSR1 [8]; [19]): enhanced
- wire-hang test, latency to grasp the wire (C57BL/6J mice [9]): failed to influence
- PD149163-induced reduction in core body temperature (C57BL/6J mice [10]): dose-dependently attenuated
- PD149163-induced reduction in horizontal activity in the open field (C57BL/6J mice [10]): dose-dependently attenuated
- locomotor response vs vehicle in non-stimulant exposed animals (C57BL/6J mice [11]): comparable
- cocaine-induced hyperlocomotion (C57BL/6J mice [11]; cocaine 30 mg/kg i.p.): attenuate cocaine-induced hyperlocomotion
- methamphetamine-induced hyperlocomotion (C57BL/6J mice [11]; methamphetamine 2 mg/kg): reduced
- effect on NTS-induced Ca2+ mobilization (NTSR1 [12]): attenuated
- Ca2+ mobilization (NTSR1 [12]): neither SBI-553 nor SR142948A stimulated
- expression of methamphetamine conditioned place preference (C57BL/6J mice [13]): blocked the expression of methamphetamine conditioned place preference
- peak systolic pressure vs vehicle (C57BL/6J mice [14]): no differences
- pERK generation (NTSR1 [15]; HEK293T cells expressing human NTSR1, ligand alone, NTS 10 nM, SBI-553 10 μM): failed to elicit pERK generation
- effect of pretreatment on NTS-induced pERK (NTSR1 [15]; [20]): blunted the early sharp peak in pERK
- NTS-induced pERK, NTS alone vs NTS in combination with SBI-553 (NTSR1 [15]; HEK293 cells lacking the Gq/11 protein (Gq-null)): comparable pERK time courses
- effect of pretreatment on NTS-induced pERK (NTSR1 [15]; β-arrestin1/2-null HEK293 cells): blocked in its entirety
- NTSR1 phosphorylation (phosphothreonine blot) (NTSR1 [16]): resulted in NTSR1 phosphorylation
- effect on total [3H]NTS binding (NTSR1 [17]; 5 nM [3H]NTS, 10 μM unlabeled ligand): increased total [^3H]NTS binding
- increase of NTS affinity for NTSR1 (Kd) (NTSR1 [17]; [21]): up to 3.9 fold
- increase of number of available [3H]NTS binding sites (Bmax) (NTSR1 [17]; [21]): up to 3.3 fold

SMILES: COc1cccc(OC)c1-c1cc(C(=O)NC2(C(=O)O)C3CC4CC(C3)CC2C4)nn1-c1ccc(C(=O)N(C)CCCN(C)C)cc1C(C)C (stereo not drawn) [SR142948A, reference compound]
- block of NTS- and SBI-553-induced β-arrestin2 recruitment to NTSR1 (NTSR1 [1]): antagonized NTS-induced, but not SBI-553-induced
- effect on NTS-induced Gq activation (NTSR1 [3]): attenuated
- Gq activation (NTSR1 [3]): neither SBI-553 nor the antagonist SR142948A had any effect
- effect on NTS-induced IP3 production (NTSR1 [5]): attenuated
- IP3 generation (NTSR1 [5]): neither SBI-553 nor SR142948A stimulated
- block of NTS- and SBI-553-induced NTSR1 internalization (NTSR1 [6]; NTS 10 nM or SBI-553 10 μM): antagonized NTS-induced, but not SBI-553-induced
- block of NTS- and SBI-553-induced β-arrestin2 translocation (NTSR1 [8]; NTS 5 nM or SBI-553 10 μM): antagonized NTS-induced, but not SBI-553-induced
- β-arrestin2 translocation (NTSR1 [8]): without effect
- effect on NTS-induced Ca2+ mobilization (NTSR1 [12]): attenuated
- Ca2+ mobilization (NTSR1 [12]): neither SBI-553 nor SR142948A stimulated
- effect of pretreatment on NTS-induced pERK (NTSR1 [15]; [20]): abolished
- displacement of [3H]SBI-553 from NTSR1 (NTSR1 [17]; 100 nM [3H]SBI-553, 10 μM unlabeled competitor, YOx beads): not displaced
